The target in test [1] is T1, Thyroid hormone receptor alpha (Homo sapiens, UniProt P10827).
T1 sequence (P10827 whole entry): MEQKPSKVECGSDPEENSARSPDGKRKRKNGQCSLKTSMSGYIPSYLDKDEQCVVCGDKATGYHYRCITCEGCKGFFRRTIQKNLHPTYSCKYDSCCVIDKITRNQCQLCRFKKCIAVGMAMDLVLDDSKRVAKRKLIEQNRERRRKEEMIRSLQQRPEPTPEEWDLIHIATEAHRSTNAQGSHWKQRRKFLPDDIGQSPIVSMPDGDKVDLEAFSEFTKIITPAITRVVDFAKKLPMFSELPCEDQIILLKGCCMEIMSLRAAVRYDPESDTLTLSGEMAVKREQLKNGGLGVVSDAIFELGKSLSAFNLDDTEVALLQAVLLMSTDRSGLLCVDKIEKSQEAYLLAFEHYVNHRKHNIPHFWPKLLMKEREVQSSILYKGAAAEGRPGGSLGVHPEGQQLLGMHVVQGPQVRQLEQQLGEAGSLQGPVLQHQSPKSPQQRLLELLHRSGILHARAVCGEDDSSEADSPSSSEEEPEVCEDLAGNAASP
In words: Inhibition of TRalpha-LBD (unknown origin) interaction to texas red-labeled SRC2-2 peptide by fluorescence polarization assay.

Test [2] has as its target T2, Thyroid hormone receptor beta (Homo sapiens, UniProt P10828).
T2 sequence (P10828 whole entry): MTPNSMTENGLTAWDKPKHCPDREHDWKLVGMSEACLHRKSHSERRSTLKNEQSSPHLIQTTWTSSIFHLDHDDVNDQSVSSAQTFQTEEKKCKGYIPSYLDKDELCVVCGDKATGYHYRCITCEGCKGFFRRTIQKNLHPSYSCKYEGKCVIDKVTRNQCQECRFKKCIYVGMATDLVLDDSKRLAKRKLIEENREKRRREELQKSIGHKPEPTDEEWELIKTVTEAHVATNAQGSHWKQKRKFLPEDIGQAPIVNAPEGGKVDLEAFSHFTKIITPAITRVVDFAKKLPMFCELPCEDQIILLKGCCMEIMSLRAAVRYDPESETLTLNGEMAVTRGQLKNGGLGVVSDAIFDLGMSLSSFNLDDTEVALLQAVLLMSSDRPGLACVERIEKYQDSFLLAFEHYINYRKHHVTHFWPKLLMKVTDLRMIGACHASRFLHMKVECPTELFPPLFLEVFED
In words: Inhibition of TRbeta-LBD (unknown origin) interaction to texas red-labeled SRC2-2 peptide by fluorescence polarization assay.

Another test deals with T3, Vitamin D3 receptor (Homo sapiens, UniProt P11473).
T3 sequence (P11473 whole entry): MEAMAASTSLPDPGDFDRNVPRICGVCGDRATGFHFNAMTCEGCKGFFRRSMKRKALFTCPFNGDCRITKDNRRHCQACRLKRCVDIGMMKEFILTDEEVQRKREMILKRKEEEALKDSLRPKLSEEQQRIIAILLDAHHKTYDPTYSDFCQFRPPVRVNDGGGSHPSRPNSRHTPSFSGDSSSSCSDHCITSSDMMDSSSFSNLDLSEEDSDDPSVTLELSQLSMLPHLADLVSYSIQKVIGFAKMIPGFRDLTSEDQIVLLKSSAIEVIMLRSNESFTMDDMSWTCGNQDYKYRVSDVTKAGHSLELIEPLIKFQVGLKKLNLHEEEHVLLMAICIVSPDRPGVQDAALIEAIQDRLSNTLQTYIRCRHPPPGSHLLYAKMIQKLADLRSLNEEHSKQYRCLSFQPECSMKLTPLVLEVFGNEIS
The test is described as follows: Inhibition of VDR (unknown origin) interaction to SRC2-3 peptide by fluorescence polarization assay. Background: Polarisation of emitted light reports the rotation of a fluorescent probe.

A further test deals with HepG2. The test is described as follows: Cytotoxicity against human HepG2 cells assessed as ATP level after 72 hrs by CellTiter-Glo assay. It is filed as cell-based. Conditions: HepG2, 72 h. On the technique in general: In ATP-based viability assays light output follows the ATP content of the culture.

In general, IC50 refers to the point on the concentration scale where inhibition reaches its midpoint. The EC50 is the concentration giving half of the maximal effect. With `CN(CC(=O)N1CCCCC1)C(=O)c1ccc(S(C)(=O)=O)c([N+](=O)[O-])c1`, the IC50 (in test [1]; in test [2]; against Vitamin D3 receptor) was > 60 µM each time. The EC50 with HepG2 came out at 11.3 µM.

As for `CS(=O)(=O)c1ccc(C(=O)N2CCC(C(=O)N(Cc3ccccc3)Cc3ccccc3)CC2)cc1[N+](=O)[O-]`, the IC50 (in test [1]; in test [2]; at Vitamin D3 receptor) was > 60 µM throughout. In addition, the EC50 with HepG2 was > 27 µM.

For `CCCN(C(=O)CNC(=O)c1ccc(S(C)(=O)=O)c([N+](=O)[O-])c1)c1ccccc1`, the values for the IC50 (in test [1]; in test [2]; against Vitamin D3 receptor) were 1.9 µM, 6.6 µM and > 60 µM, respectively. For the same compound, the EC50 in the test on HepG2 was > 27 µM.

For `CN(Cc1ccccc1F)C(=O)CN(C)C(=O)c1ccc(S(C)(=O)=O)c([N+](=O)[O-])c1`, the IC50 (in test [1]; in test [2]; against Vitamin D3 receptor) was > 60 µM each time. Moreover, in the test with HepG2, the EC50 was > 27 µM.

Regarding `CN(CC(=O)N1CCc2ccccc2C1)C(=O)c1ccc(S(C)(=O)=O)c([N+](=O)[O-])c1`, the IC50 (in test [1]; in test [2]; against Vitamin D3 receptor) was > 60 µM in each case. In the test with HepG2, the EC50 was > 27 µM.

Turning to `CN(CC(=O)N1CCN(c2ccccc2F)CC1)C(=O)c1ccc(S(C)(=O)=O)c([N+](=O)[O-])c1`, the IC50 (in test [1]; in test [2]; at Vitamin D3 receptor) was > 60 µM in each case. Also, in the test on HepG2, the 50% effective concentration (EC50) was 10.3 µM.

Take `CS(=O)(=O)c1ccc(C(=O)NCCC(=O)N2CCN(c3ccccc3)CC2)cc1[N+](=O)[O-]`: the IC50 (in test [1]; in test [2]; against Vitamin D3 receptor) was > 60 µM throughout. In the test with HepG2, the EC50 was > 27 µM.

Turning to `CS(=O)(=O)c1ccc(C(=O)N2CCC(C(=O)N3CCN(c4ccccc4F)CC3)CC2)cc1[N+](=O)[O-]`, the IC50 (in test [1]; in test [2]; against Vitamin D3 receptor) was > 60 µM in each case. Further, in the test with HepG2, the EC50 was > 27 µM.

Take `Cc1ccc(N2CCN(C(=O)CN(C)C(=O)c3ccc(S(C)(=O)=O)c([N+](=O)[O-])c3)CC2)cc1`: the IC50 (in test [1]; in test [2]; against Vitamin D3 receptor) was > 60 µM throughout. The EC50 in the test on HepG2 was > 27 µM.

As to `Cc1ccc(N2CCN(C(=O)CCCNC(=O)c3ccc(S(C)(=O)=O)c([N+](=O)[O-])c3)CC2)cc1`, the IC50 (in test [1]; in test [2]; at Vitamin D3 receptor) was > 60 µM each time. For the same compound, the EC50 in the test with HepG2 was > 27 µM.

`CN(Cc1ccccc1)C(=O)CCCNC(=O)c1ccc(S(C)(=O)=O)c([N+](=O)[O-])c1`: the IC50 (in test [1]; in test [2]; against Vitamin D3 receptor) was > 60 µM throughout. Further, in the test on HepG2, the EC50 is > 27 µM.

With `CS(=O)(=O)c1ccc(C(=O)NCCCC(=O)N(Cc2ccccc2)Cc2ccccc2)cc1[N+](=O)[O-]`, the IC50 in test [1] is 29 µM; in test [2], 59 µM; at Vitamin D3 receptor, > 60 µM. Also, the EC50 with HepG2 is > 27 µM.

Take `CS(=O)(=O)c1ccc(C(=O)NCCCC(=O)N2CCCCC2)cc1[N+](=O)[O-]`: the IC50 (in test [1]; in test [2]; against Vitamin D3 receptor) was > 60 µM throughout. For the same compound, in the test on HepG2, the EC50 was > 27 µM.

With `CC(C)N(C(=O)CNC(=O)c1ccc(S(C)(=O)=O)c([N+](=O)[O-])c1)C(C)C`, the IC50 (in test [1]; in test [2]; against Vitamin D3 receptor) was > 60 µM each time. Further, the EC50 with HepG2 is > 27 µM.

In the case of `CS(=O)(=O)c1ccc(C(=O)NCC(=O)NC23CC4CC(CC(C4)C2)C3)cc1[N+](=O)[O-]`, the IC50 is 9.6 µM in test [1], 16 µM in test [2] and > 60 µM at Vitamin D3 receptor. For the same compound, in the test on HepG2, the EC50 is > 27 µM.

Take `CC1CCN(C(=O)C2CCN(C(=O)c3ccc(S(C)(=O)=O)c([N+](=O)[O-])c3)CC2)CC1`: the IC50 (in test [1]; in test [2]; against Vitamin D3 receptor) was > 60 µM in each case. For the same compound, in the test with HepG2, the EC50 is > 27 µM.

Take `CS(=O)(=O)c1ccc(C(=O)NCCCC(=O)N2CCc3ccccc3C2)cc1[N+](=O)[O-]`: the IC50 (in test [1]; in test [2]; at Vitamin D3 receptor) was > 60 µM each time. For the same compound, in the test with HepG2, the EC50 is > 27 µM.

Consider `CS(=O)(=O)c1ccc(C(=O)NCCC(=O)N2CCC(c3ccccc3)CC2)cc1[N+](=O)[O-]`, for which the IC50 (in test [1]; in test [2]; against Vitamin D3 receptor) was > 60 µM in each case. In addition, the EC50 in the test on HepG2 is > 27 µM.

`CN(Cc1cccc(F)c1)C(=O)CCCNC(=O)c1ccc(S(C)(=O)=O)c([N+](=O)[O-])c1`: the IC50 (in test [1]; in test [2]; against Vitamin D3 receptor) was > 60 µM each time. For the same compound, the EC50 in the test with HepG2 was > 27 µM.

Take `CS(=O)(=O)c1ccc(C(=O)N2CCC(C(=O)N(Cc3ccccc3)c3ccccc3)CC2)cc1[N+](=O)[O-]`: the IC50 (in test [1]; in test [2]; on Vitamin D3 receptor) was > 60 µM in each case. The EC50 with HepG2 is > 27 µM.

Take `CS(=O)(=O)c1ccc(C(=O)NCC(=O)N2CCN(c3ccc(F)cc3)CC2)cc1[N+](=O)[O-]`: the IC50 in test [1] is 58 µM; in test [2], > 60 µM; against Vitamin D3 receptor it was 51 µM. For the same compound, in the test on HepG2, the EC50 was found to be 12.9 µM.

Take `CS(=O)(=O)c1ccc(C(=O)N2CCC(C(=O)N3Cc4ccccc4C3)CC2)cc1[N+](=O)[O-]`: the IC50 (in test [1]; in test [2]; against Vitamin D3 receptor) was > 60 µM throughout. Moreover, in the test with HepG2, the EC50 is > 27 µM.

In the case of `CN(CC(=O)N1CCN(c2ccccc2)CC1)C(=O)c1ccc(S(C)(=O)=O)c([N+](=O)[O-])c1`, the IC50 (in test [1]; in test [2]; against Vitamin D3 receptor) was > 60 µM throughout. In addition, in the test with HepG2, the EC50 is > 27 µM.

Regarding `CS(=O)(=O)c1ccc(C(=O)NCCCC(=O)N2CCN(c3ccccc3F)CC2)cc1[N+](=O)[O-]`, the IC50 (in test [1]; in test [2]; at Vitamin D3 receptor) was > 60 µM in each case. The EC50 with HepG2 was > 27 µM.

For `CS(=O)(=O)c1ccc(C(=O)N2CCC(C(=O)N3CCc4ccccc4C3)CC2)cc1[N+](=O)[O-]`, the IC50 (in test [1]; in test [2]; at Vitamin D3 receptor) was > 60 µM in each case. Also, the EC50 with HepG2 is > 27 µM.

For `CS(=O)(=O)c1ccc(C(=O)NCCCC(=O)N2CCN(c3ccccc3)CC2)cc1[N+](=O)[O-]`, the IC50 (in test [1]; in test [2]; against Vitamin D3 receptor) was > 60 µM in each case. Further, in the test on HepG2, the EC50 was > 27 µM.

Regarding `CCCN(C(=O)CCCNC(=O)c1ccc(S(C)(=O)=O)c([N+](=O)[O-])c1)c1ccccc1`, the IC50 (in test [1]; in test [2]; on Vitamin D3 receptor) was > 60 µM throughout. Moreover, in the test with HepG2, the EC50 was > 27 µM.

With `CCCN(C(=O)CCNC(=O)c1ccc(S(C)(=O)=O)c([N+](=O)[O-])c1)c1ccccc1`, the IC50 in test [1] stood at 32 µM; in test [2], 50 µM; against Vitamin D3 receptor, 40 µM. Besides, the EC50 with HepG2 is > 27 µM.

On to `CS(=O)(=O)c1ccc(C(=O)NCC(=O)N2CCC(c3ccccc3)CC2)cc1[N+](=O)[O-]`, for which the IC50 was 44 µM in test [1], > 60 µM in test [2] and 37 µM against Vitamin D3 receptor. In addition, the EC50 in the test with HepG2 was > 27 µM.

`CC(C)N(C(=O)C1CCN(C(=O)c2ccc(S(C)(=O)=O)c([N+](=O)[O-])c2)CC1)C(C)C`: the IC50 (in test [1]; in test [2]; against Vitamin D3 receptor) was > 60 µM in each case. The EC50 in the test on HepG2 was > 27 µM.

Take `CN(CC(=O)N1CCC(c2ccccc2)CC1)C(=O)c1ccc(S(C)(=O)=O)c([N+](=O)[O-])c1`: the IC50 (in test [1]; in test [2]; against Vitamin D3 receptor) was > 60 µM in each case. The EC50 in the test on HepG2 was > 27 µM.

The values are drawn from ChEMBL document CHEMBL2346513, “Synthesis and evaluation of methylsulfonylnitrobenzamides (MSNBAs) as inhibitors of the thyroid hormone receptor-coactivator interaction” (Bioorg Med Chem Lett, 2013).
